# In PubChem BioAssay (NCI):
#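 48-hour exposure; five concentrations; linearly interpolated endpoints. Here, GI50 denotes the concentration required for 50% inhibition of growth. TGI marks complete inhibition of growth.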
# Experiments:
# Experiment in all cases: inhibition of tumour cell growth, NCI panel, 48 h
# MALME-3M melanoma = system: MALME-3M melanoma
# TK-10 renal = system: TK-10 renal
# MCF7 breast = system: MCF7 breast
# KM12 colon = system: KM12 colon
# UACC-62 melanoma = system: UACC-62 melanoma
# HL-60(TB) leukemia = system: HL-60(TB) leukemia
# HOP-92 NSCLC = system: HOP-92 NSCLC
# HT29 colon = system: HT29 colon
# SNB-19 CNS = system: SNB-19 CNS
# PC-3 prostate = system: PC-3 prostate
# HS 578T breast = system: HS 578T breast
# HCC-2998 colon = system: HCC-2998 colon
# SW-620 colon = system: SW-620 colon
# SK-MEL-5 melanoma = system: SK-MEL-5 melanoma
# NCI-H226 lung = system: NCI-H226 lung
# MDA-MB-231 breast = system: MDA-MB-231 breast
# OVCAR-4 ovarian = system: OVCAR-4 ovarian
# K-562 leukemia = system: K-562 leukemia
# EKVX NSCLC = system: EKVX NSCLC
# OVCAR-8 ovarian = system: OVCAR-8 ovarian
# MDA-MB-435 = system: MDA-MB-435
# RPMI-8226 leukemia = system: RPMI-8226 leukemia
# CCRF-CEM leukemia = system: CCRF-CEM leukemia
# HCT-15 colon = system: HCT-15 colon
# MOLT-4 leukemia = system: MOLT-4 leukemia
# SF-268 CNS = system: SF-268 CNS
# SK-MEL-28 melanoma = system: SK-MEL-28 melanoma
# M14 melanoma = system: M14 melanoma
# LOX IMVI melanoma = system: LOX IMVI melanoma
# UACC-257 melanoma = system: UACC-257 melanoma
# IGROV1 ovarian = system: IGROV1 ovarian
# SNB-75 CNS = system: SNB-75 CNS
# SF-539 CNS = system: SF-539 CNS
# SF-295 CNS = system: SF-295 CNS
# DU-145 prostate = system: DU-145 prostate
# SN12C renal = system: SN12C renal
# SK-OV-3 ovarian = system: SK-OV-3 ovarian
# SR leukemia = system: SR leukemia
# HOP-62 NSCLC = system: HOP-62 NSCLC
# OVCAR-5 ovarian = system: OVCAR-5 ovarian
# T-47D breast = system: T-47D breast
# RXF 393 renal = system: RXF 393 renal
# 786-0 renal = system: 786-0 renal
# NCI-H460 lung = system: NCI-H460 lung
# BT-549 breast = system: BT-549 breast
# UO-31 renal = system: UO-31 renal
# A498 renal = system: A498 renal
# A549 NSCLC = system: A549 NSCLC
# ACHN renal = system: ACHN renal
# HCT-116 colon = system: HCT-116 colon
# COLO 205 colon = system: COLO 205 colon
# NCI-H522 lung = system: NCI-H522 lung
# U251 CNS = system: U251 CNS
# CAKI-1 renal = system: CAKI-1 renal
# NCI-H23 lung = system: NCI-H23 lung
# NCI/ADR-RES ovarian = system: NCI/ADR-RES ovarian
structure (smiles),measurement,setting,value
O=C(N/N=C\c1ccc(F)cc1)c1ccc2nc(-c3ccc(Br)cc3)[nH]c2c1,GI50,MALME-3M melanoma,1.65 µM
same,TGI,MALME-3M melanoma,3.43 µM
same,GI50,TK-10 renal,2.59 µM
same,TGI,TK-10 renal,5.48 µM
same,GI50,MCF7 breast,1.7 µM
same,TGI,MCF7 breast,3.88 µM
same,GI50,KM12 colon,3.2 µM
same,TGI,KM12 colon,15.1 µM
same,GI50,UACC-62 melanoma,2.69 µM
same,TGI,UACC-62 melanoma,8.76 µM
same,GI50,HL-60(TB) leukemia,14.6 µM
same,TGI,HL-60(TB) leukemia,> 100 µM
same,GI50,HOP-92 NSCLC,2.13 µM
same,TGI,HOP-92 NSCLC,4.54 µM
same,GI50,HT29 colon,1.85 µM
same,TGI,HT29 colon,3.47 µM
same,GI50,SNB-19 CNS,2.27 µM
same,TGI,SNB-19 CNS,4.96 µM
same,GI50,PC-3 prostate,1.79 µM
same,TGI,PC-3 prostate,3.4 µM
same,GI50,HS 578T breast,2.04 µM
same,TGI,HS 578T breast,5.39 µM
same,GI50,HCC-2998 colon,2.28 µM
same,TGI,HCC-2998 colon,5.48 µM
same,GI50,SW-620 colon,1.9 µM
same,TGI,SW-620 colon,3.76 µM
same,GI50,SK-MEL-5 melanoma,3.25 µM
same,TGI,SK-MEL-5 melanoma,13.4 µM
same,GI50,NCI-H226 lung,2.62 µM
same,TGI,NCI-H226 lung,16.6 µM
same,GI50,MDA-MB-231 breast,1.93 µM
same,TGI,MDA-MB-231 breast,4.49 µM
same,GI50,OVCAR-4 ovarian,2.51 µM
same,TGI,OVCAR-4 ovarian,7.13 µM
same,GI50,K-562 leukemia,2.73 µM
same,TGI,K-562 leukemia,8.09 µM
same,GI50,EKVX NSCLC,2.09 µM
same,TGI,EKVX NSCLC,4.8 µM
same,GI50,OVCAR-8 ovarian,1.98 µM
same,TGI,OVCAR-8 ovarian,4.14 µM
same,GI50,MDA-MB-435,1.96 µM
same,TGI,MDA-MB-435,4.12 µM
same,GI50,RPMI-8226 leukemia,2.97 µM
same,TGI,RPMI-8226 leukemia,9.39 µM
same,GI50,CCRF-CEM leukemia,3.5 µM
same,TGI,CCRF-CEM leukemia,32.1 µM
same,GI50,HCT-15 colon,2.19 µM
same,TGI,HCT-15 colon,5.08 µM
same,GI50,MOLT-4 leukemia,2.17 µM
same,TGI,MOLT-4 leukemia,5.62 µM
same,GI50,SF-268 CNS,3.26 µM
same,TGI,SF-268 CNS,13 µM
same,GI50,SK-MEL-28 melanoma,1.86 µM
same,TGI,SK-MEL-28 melanoma,3.8 µM
same,GI50,M14 melanoma,2.08 µM
same,TGI,M14 melanoma,4.52 µM
same,GI50,LOX IMVI melanoma,1.74 µM
same,TGI,LOX IMVI melanoma,3.54 µM
same,GI50,UACC-257 melanoma,2.03 µM
same,TGI,UACC-257 melanoma,4.48 µM
same,GI50,IGROV1 ovarian,1.88 µM
same,TGI,IGROV1 ovarian,3.89 µM
same,GI50,SNB-75 CNS,1.87 µM
same,TGI,SNB-75 CNS,4.41 µM
same,GI50,SF-539 CNS,1.74 µM
same,TGI,SF-539 CNS,3.42 µM
same,GI50,SF-295 CNS,2.18 µM
same,TGI,SF-295 CNS,5.24 µM
same,GI50,DU-145 prostate,2.07 µM
same,TGI,DU-145 prostate,4.97 µM
same,GI50,SN12C renal,1.78 µM
same,TGI,SN12C renal,3.63 µM
same,GI50,SK-OV-3 ovarian,2.09 µM
same,TGI,SK-OV-3 ovarian,5.17 µM
same,GI50,SR leukemia,2.75 µM
same,TGI,SR leukemia,8.79 µM
same,GI50,HOP-62 NSCLC,1.86 µM
same,TGI,HOP-62 NSCLC,3.72 µM
same,GI50,OVCAR-5 ovarian,2.28 µM
same,TGI,OVCAR-5 ovarian,5.73 µM
same,GI50,T-47D breast,1.78 µM
same,TGI,T-47D breast,3.92 µM
same,GI50,RXF 393 renal,1.74 µM
same,TGI,RXF 393 renal,3.53 µM
same,GI50,786-0 renal,2.03 µM
same,TGI,786-0 renal,3.88 µM
same,GI50,NCI-H460 lung,1.72 µM
same,TGI,NCI-H460 lung,3.27 µM
same,GI50,BT-549 breast,2.34 µM
same,TGI,BT-549 breast,6.08 µM
same,GI50,UO-31 renal,1.6 µM
same,TGI,UO-31 renal,3.31 µM
same,GI50,A498 renal,1.94 µM
same,TGI,A498 renal,5.31 µM
same,GI50,A549 NSCLC,1.9 µM
same,TGI,A549 NSCLC,3.7 µM
same,GI50,ACHN renal,1.81 µM
same,TGI,ACHN renal,3.69 µM
same,GI50,HCT-116 colon,1.87 µM
same,TGI,HCT-116 colon,3.95 µM
same,GI50,COLO 205 colon,1.91 µM
same,TGI,COLO 205 colon,4.43 µM
same,GI50,NCI-H522 lung,1.78 µM
same,TGI,NCI-H522 lung,3.96 µM
same,GI50,U251 CNS,1.91 µM
same,TGI,U251 CNS,3.38 µM
same,GI50,CAKI-1 renal,2.2 µM
same,TGI,CAKI-1 renal,5.41 µM
same,GI50,NCI-H23 lung,1.88 µM
same,TGI,NCI-H23 lung,3.67 µM
same,GI50,NCI/ADR-RES ovarian,7.97 µM
same,TGI,NCI/ADR-RES ovarian,> 100 µM
